For this test, the target named is T1, c-met (Homo sapiens, UniProt P08581).
T1 construct: endogenous in cells; host or cells: HT29 (ATCC HTB-38), human colon adenocarcinoma
In words: C-met Autoactivation Kinase Assay (AKA), ELISA type assay on HT29 cell lysate. Type of test: biochemical. To be noted: phosphorylation of c-met from HT29 lysate, 40 μM ATP. An excerpt: C-met Autoactivation Kinase Assay (AKA)
C-met is a typical tyrosine kinase which is involved in metastasis, proliferation/apoptosis and angiogenesis of tumors. The assay is an ELISA type assay measuring the phosphorylation of c-met using a phospho-tyrosine specific antibody.
Cell lysate of human colon adenocarcinoma HT29 known for its high content of c-met is bound to the wells of a microtiterplate (MTP) via an anti-hHGF receptor antibody (anti-hHGFR). ATP-phosphorylation of c-met is detected in presence or absence of the test compounds by using a phospho-tyrosine mouse IgG and a POD labeled goat anti-mouse IgG detection system. Using the classical POD substrate TMB, an absorption at 450 nm/620 nm is used to calculate enzymatic activity.
Plates: 96-well polystyrene plates (NUNC) streptavidin-coated microtiter plates Cell line/Lysate: HT29 (ATCC HTB-38), human colon adenocarcinoma (confluence: 2.5×10^5 cells/cm^2) are washed with PBS and incubated with Lysis buffer for 10 min on ice. Supernatent is collected and diluted with TBS. Lysate is shockfrozen in liquid nitrogen and stored at −80° C.)
Reagents (all working solutions are kept at 4° C., unless stated otherwise): • anti-hHGFR detection stock solution: 50 μg/ml (R&D Systems, Cat.No. BAF 358) antibody final conc.: 1 μg/ml • p-Tyr (PY99) mouse stock solution: 200 μg/ml (Santa Cruz Biotechnology, monoclonal IgG2b Cat.No. SC-7020) final conc.: 0.2 μg/ml • goat-anti-mouse IgG: 2 ml (BIO RAD, Cat.No. 170–6516) • (H+L)-HRP Conjugate; final conc.: 1:2000 • Blocking Reagent: Roche Diagnostics GmbH, Cat.No.1 112589 for ELISA diluted 1:10 in TBS • ATP: Adenosine-5′-triphosphate, stock solution 10 mM, stock solution 10 mM (Roche Diagnostics GmbH, Cat.No. 127531) final conc.: 40 μM • TBS: Tris-buffered saline, 50 mM TRIS pH 7.5 (Roche Diagnostics GmbH, Cat.No. 708976), 150 mM NaCl (SIGMA, Cat.No. S-3014) • Wash buffer TBS-T: Tris-buffered saline, 50 mM TRIS pH 7.5 150 mM NaCl, containing 0.5% Tween20 • Kinase buffer: Tris-buffered saline, 50 mM TRIS pH 7.5, 100 mM NaCl, 60 mM MgCl2 (SIGMA Chemical Company, Cat.No. M-1028) • Lysis buffer: 50 mM TRIS pH 7.5 containing 1% Nonidet P40 (Roche Diagnostics GmbH, Cat.No.1754599) 0.5 % Deoxycholic acid (SIGMA Chemical Company, Cat.No. D-6750) final conc.: 1 mM 1 mM PMSF stock solution 70 mM (Roche Diagnostics GmbH, Cat.No.837091 40 μl/ml Complete (Roche Diagnostics GmbH, Cat.No. 1836145) Final conc.: 40 μ/ml • TMB: Tetramethylbenzidine (Intergen Company, Cat.No. 91000) • Samples: 10 mM in DMSO (stored at −20° C.), thawed at room temperature Procedure: […]
On the technique in general: In an ELISA, binding on a coated surface is turned into a signal by an enzyme label.

The values that follow come from patent US7144889B2, “Triarylimidazoles” (Hoffman-La Roche Inc., priority 2003, dated 2006).

T1 sequence (P08581 25-1390): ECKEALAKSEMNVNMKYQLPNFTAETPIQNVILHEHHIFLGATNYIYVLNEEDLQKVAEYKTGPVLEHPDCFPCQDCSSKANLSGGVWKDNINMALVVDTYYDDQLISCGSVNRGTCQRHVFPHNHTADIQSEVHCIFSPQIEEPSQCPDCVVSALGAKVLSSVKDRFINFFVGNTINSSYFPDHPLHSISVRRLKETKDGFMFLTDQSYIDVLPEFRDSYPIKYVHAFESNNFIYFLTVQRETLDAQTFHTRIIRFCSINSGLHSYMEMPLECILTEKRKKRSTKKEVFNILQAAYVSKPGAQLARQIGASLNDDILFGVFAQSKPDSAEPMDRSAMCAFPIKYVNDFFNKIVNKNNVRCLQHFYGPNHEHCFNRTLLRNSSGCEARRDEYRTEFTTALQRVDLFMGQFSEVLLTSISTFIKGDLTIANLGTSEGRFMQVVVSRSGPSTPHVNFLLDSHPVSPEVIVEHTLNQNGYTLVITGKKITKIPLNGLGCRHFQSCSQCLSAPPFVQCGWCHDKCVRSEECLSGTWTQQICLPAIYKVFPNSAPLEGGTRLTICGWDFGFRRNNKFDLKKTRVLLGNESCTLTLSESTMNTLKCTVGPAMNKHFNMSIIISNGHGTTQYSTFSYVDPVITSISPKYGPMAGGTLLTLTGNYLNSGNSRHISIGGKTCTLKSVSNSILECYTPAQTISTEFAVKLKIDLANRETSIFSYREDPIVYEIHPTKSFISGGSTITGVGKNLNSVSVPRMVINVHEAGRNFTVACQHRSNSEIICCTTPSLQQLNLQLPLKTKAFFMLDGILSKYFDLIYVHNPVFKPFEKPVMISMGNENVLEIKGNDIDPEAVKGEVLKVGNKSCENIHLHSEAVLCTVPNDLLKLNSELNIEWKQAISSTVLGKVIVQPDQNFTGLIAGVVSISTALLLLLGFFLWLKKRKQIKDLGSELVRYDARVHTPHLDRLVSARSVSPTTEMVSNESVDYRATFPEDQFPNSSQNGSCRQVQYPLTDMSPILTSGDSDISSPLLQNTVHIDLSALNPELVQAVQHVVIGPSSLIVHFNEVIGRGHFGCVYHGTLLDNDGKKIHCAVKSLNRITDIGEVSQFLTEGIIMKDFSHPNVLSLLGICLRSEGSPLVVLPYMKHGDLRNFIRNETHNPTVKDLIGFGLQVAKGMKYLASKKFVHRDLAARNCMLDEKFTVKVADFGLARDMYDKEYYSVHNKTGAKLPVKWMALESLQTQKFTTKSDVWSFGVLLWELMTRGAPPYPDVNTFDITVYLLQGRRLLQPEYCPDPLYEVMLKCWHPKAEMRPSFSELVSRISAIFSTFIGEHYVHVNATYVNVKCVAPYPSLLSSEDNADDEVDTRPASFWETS

As for `OCCCNc1nccc(-c2[nH]c(-c3c(Cl)cc(OCCO)cc3Cl)nc2-c2cccc(OCc3ccccn3)c2)n1` [Example H1, 2-(2,6-dichloro-4-[2-hydroxyethoxy]phenyl)-4-(3-(2-pyridinylmethyloxy)phenyl)-5-(2-[3-hydroxypropylamino]pyrimidin-4-yl)-N-1H-imidazole], the IC50 (in general, the concentration needed to halve the response being measured) was found to be 22 nM.

The compound `OCCCNc1nccc(-c2[nH]c(-c3c(Cl)cc(OCCO)cc3Cl)nc2-c2cccc(OCc3ccncc3)c2)n1` [Example H3, 2-(2,6-dichloro-4-[2-hydroxyethoxy]phenyl)-4-(3-(4-pyridinylmethyloxy)phenyl)-5-(2-[3-hydroxypropylamino]pyrimidin-4-yl)-N-1H-imidazole] gave an IC50 of 54 nM. Consider `OCCCNc1nccc(-c2[nH]c(-c3c(Cl)cncc3Cl)nc2-c2cccc(OCc3ccccc3)c2)n1` [Example H4, 2-(3,5-dichloropyridin-4-yl)-4-(3-benzyloxyphenyl)-5-(2-[3-hydroxypropyl-amino]pyrimidin-4-yl)-N-1H-imidazole], for which the IC50 was found to be 23 nM. `OCCCNc1nccc(-c2[nH]c(-c3c(Cl)cc(OCCO)cc3Cl)nc2-c2cccc(OCc3cccnc3)c2)n1` [Example H2, 2-(2,6-dichloro-4-[2-hydroxyethoxy]phenyl)-4-(3-(3-pyridinylmethyloxy)phenyl)-5-(2-[3-hydroxypropylamino]pyrimidin-4-yl)-N-1H-imidazole] yielded a 50% inhibitory concentration (IC50) of 32 nM.
